According to patent US20250041408A1, “SMALL MOLECULE IMMUNOPOTENTIATOR CONJUGATES OF NFKB ACTIVATORS AS ADJUVANTS WITH ENHANCED EFFICACY AND REDUCED TOXICITY” (THE UNIVERSITY OF CHICAGO, priority 2021, published 2025):

Legend:
[1] = Systemic cytokines in CT26 tumor model after intratumoral injection; type: in vivo, Balb/c mice; conditions: 2 h after intratumoral injection
Experimental: FIGS. 17A-C (A) Outline of in vivo tumor model experiment. (B) Systemic IL-6 levels measured in the serum 2 h after intertumoral injection of compounds. (C) Systemic TNF-α levels measured in the serum 2 h after intertumoral injection of compounds.
0.2×10^6 CT-26 cells were injected subcutaneously into the flank of 6-week-old Balb/c mice (n=10 per group) in 100 μL of PBS. The tumor size was monitored on alternating days. Tumor volumes were measured using the equation V=1/2×L×W×W. When the tumors reached a size of approximately 75 mm3 (day 11), treatment was started. Various formulations (20 nmols of each agonist or PBS) were injected peritumorally every 4 days […]. Mice were euthanized when the tumors reached 20 mm in any linear dimension. Five mice for each group were used for blood analysis. Blood was collected two days post the first injection for hematological toxicity analysis and two hours post the second injection for systemic cytokine analysis.
After 11 days, the tumors were established and intratumoral injections were administered with the SMIP adjuvant and adjuvant dimers. At 2 h and 24 h after these injections, serum and blood were collected to examine systemic cytokines in the serum and perform a hematological analysis on the blood to better quantify adjuvant toxicity. Similar to the OVA vaccination model, the dimer adjuvants induced baseline levels of IL-6 and TNF-α as measured in the serum.

[2] = with CPG in vaccine formulations; vaccine protective effects maintained; cited from earlier work
[3] = system: NF-κB in RAW-Blue 264.7 macrophage cells; assay: RAW-Blue 264.7 macrophage NF-κB assay (polymeric immunomodulator); type: cell-based; conditions: incubated 18 h at 37° C; QUANTIBlue absorbance 620 nm
Experimental: Cells were incubated with each compound for 18 h at 37° C. Supernatant was removed and incubated with QUANTIBlue for 1 h, and the absorbance at 620 nm was measured. Error bars represent standard deviation (SD). Samples were run in triplicate.
RAW264.7 Macrophage (RAW-Blue) NF-κB assay: RAW-Blue cells (passage 5-15) were plated in a 96 well plate at a density of 100,000 cells/well in 180 μL DMEM containing 10% heat-inactivated FBS (HI-FBS) and selective antibiotics. The cells were treated with agonists for […] at 37° C. and 5% CO2. NF-κB activity was measured by a QUANTI-Blue (InvivoGen) assay and the absorbance was measured at 620 nm using a Multiskan FC plate reader (Thermo Scientific).

BMDMs [4] = assay: Flow cytometry of costimulatory molecules CD40 and CD86 on BMDMs; type: cell-based, C57Bl/6 mice; conditions: 18 h at 37° C
Experimental: FIGS. 2A-B show immune activation as measured by costimulatory molecules CD40 (FIG. 2A) and CD86 (FIG. 2B) on BMDMs. Cells were incubated with each compound for 18 h at 37° C. Error bars represent SD. Samples were run in triplicate. […] Each experiment was repeated thrice with similar results.
Flow Cytometry for Cell Surface Marker Upregulation: BMDCs were plated in untreated 12-well plates at 1×10^6 cells/mL and incubated with agonists in culture media for 18 h at 37° C. with 5% CO2. The cells were released from the plate by pipetting vigorously and centrifuged at 2500 RPM at 4° C. for 10 min. The cell pellet was resuspended in cold FACS buffer (PBS, 10% FBS, and 0.1% sodium azide) buffer (300 μL) and incubated with CD16/32 FcR blocking antibodies (1.0 μg/1×10^6 cells) on ice for 15 min. The cell suspension was pelleted, and the supernatant was removed. Next, the cell pellet was resuspended in cold FACS buffer (100 μL) and stained for CD86 and CD40 in the dark for 30 min. The samples were then washed twice with 300 μL FACS buffer. The pelleted cells were resuspended in cold FACS buffer (200 μL) and kept on ice until being loaded onto the flow cytometer for analysis.

OVA = assay: Serum anti-OVA IgG titers after OVA immunization (ELISA); type: in vivo, C57Bl/6 mice; conditions: immunized days 0 and 14; ELISA at 3 weeks
BMDMs [5] = assay: TNF-α in supernatant of BMDMs by ELISA; type: cell-based, C57Bl/6 mice; conditions: treated BMDMs; compared with pTLR7/8 and mTLR7/8
cells from the dLNs = assay: Cytokines from draining lymph node cells re-stimulated with OVA (CBA); type: in vivo, C57Bl/6 mice; conditions: re-stimulated with OVA for 48 hours

SMILES: CCCCCCCCCCCCCCCCCC(=O)NCCCCOn1c(CCCC)nc2c(N)nc3ccccc3c21 [Compound 3M-052]
- systemic IL-6 levels in serum [1]: comparable
- systemic TNF-α levels in serum [1]: comparable

SMILES: CCOCc1nc2c(N)nc3ccccc3c2n1CC(C)(C)O [Compound R848, resiquimod]
- systemic IL-6 levels in serum [1]: high levels
- systemic TNF-α levels in serum [1]: high levels

SMILES: COc1cc(CNC(=O)CCCC/C=C/C(C)C)ccc1O [capsaicin]
- pro-inflammatory systemic IL-6 and TNF-α levels [2]: reduce

SMILES: C=CCc1ccc(O)c(-c2ccc(O)c(CC=C)c2)c1 [honokiol]
- pro-inflammatory systemic IL-6 and TNF-α levels [2]: reduce

SMILES: CCCCc1nc2c(N)nc3ccccc3c2n1Cc1ccc(CNC(=O)CCCCCNC(=O)CCC(NC(=O)CNC(=O)C(CCC(=O)NCCCCCC(=O)NCc2ccc(Cn3c(CCCC)nc4c(N)nc5ccccc5c43)cc2)NC(=O)CNC(=O)C(CCC(=O)NCCCCCC(=O)NCc2ccc(Cn3c(CCCC)nc4c(N)nc5ccccc5c43)cc2)NC(=O)CNC(=O)C(CCC(=O)NCCCCCC(=O)NCc2ccc(Cn3c(CCCC)nc4c(N)nc5ccccc5c43)cc2)NC(=O)CNC(=O)C(CCC(=O)NCCCCCC(=O)NCc2ccc(Cn3c(CCCC)nc4c(N)nc5ccccc5c43)cc2)NC(=O)CCC(=O)N2Cc3ccccc3-c3nnn(CCCCCC(=O)NC(Cc4ccc(O)c(O)c4)C(=O)NC(Cc4ccc(O)c(O)c4)C(=O)NC(Cc4ccc(O)c(O)c4)C(=O)NC(Cc4ccc(O)c(O)c4)C(N)=O)c3-c3ccccc32)C(N)=O)cc1 (centres unmarked) [pTLR7/8_mod]
- NF-κB levels [3]: increased
- levels of CD40 (BMDMs [4]): greatest increase
- levels of CD86 (BMDMs [4]): greatest increase
- serum titers of anti-OVA antibodies (OVA): Highest
- TNF-α concentration in supernatant (BMDMs [5]): smallest increase
- amount of IL-6 (FIG. 6B) produced by dLN cells (cells from the dLNs): highest levels
- amount of IL-23 (FIG. 6A) produced by dLN cells (cells from the dLNs): highest levels
- amount of TNF-α (FIG. 6C) produced by dLN cells (cells from the dLNs): highest levels
